Measurements: ChEMBL document CHEMBL1165955, “Synthesis and biological evaluation of novel (4 or 5-aryl)pyrazolyl-indoles as inhibitors of interleukin-2 inducible T-cell kinase (ITK)” (Bioorg Med Chem, 2010)
Activity calls are given as the source filed them. No cut-off for these calls is given here.

Experiments:
[1] = biological target: T1, Tyrosine-protein kinase ITK/TSK (Homo sapiens, UniProt Q08881); experiment: Inhibition of GST-tagged full length recombinant ITK after 2 hrs by IMAP assay
T1 sequence (Q08881 whole entry): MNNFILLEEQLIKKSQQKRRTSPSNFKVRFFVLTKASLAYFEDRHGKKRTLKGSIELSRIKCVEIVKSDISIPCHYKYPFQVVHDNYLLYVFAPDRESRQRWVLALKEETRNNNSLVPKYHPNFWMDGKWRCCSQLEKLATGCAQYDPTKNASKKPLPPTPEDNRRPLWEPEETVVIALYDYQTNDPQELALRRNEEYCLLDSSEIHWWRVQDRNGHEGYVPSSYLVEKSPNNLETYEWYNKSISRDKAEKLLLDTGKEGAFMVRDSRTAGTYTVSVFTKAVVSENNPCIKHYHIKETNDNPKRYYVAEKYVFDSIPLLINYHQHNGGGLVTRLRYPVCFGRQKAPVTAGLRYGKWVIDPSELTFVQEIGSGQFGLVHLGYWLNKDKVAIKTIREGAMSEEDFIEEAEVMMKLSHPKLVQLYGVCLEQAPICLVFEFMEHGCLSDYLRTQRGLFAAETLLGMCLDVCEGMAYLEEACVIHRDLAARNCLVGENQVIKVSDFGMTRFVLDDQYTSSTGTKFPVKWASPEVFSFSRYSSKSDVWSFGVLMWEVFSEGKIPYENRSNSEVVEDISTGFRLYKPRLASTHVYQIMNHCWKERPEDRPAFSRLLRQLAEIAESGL

[2] = biological target: Insulin receptor (Homo sapiens, UniProt P06213); experiment: Inhibition of GST-tagged recombinant INSR catalytic domain expressed in baculovirus-infected Sf21 cells after 80 mins by IMAP assay
[3] = biological target: Cyclin-dependent kinase 2/cyclin E1 (Homo sapiens, UniProt P24941); experiment: (§1) Inhibition of GST-tagged full length CDK2/Cyclin E after 40 mins by IMAP assay; type: protein-complex assay
[4] = Inhibition of histidine-tagged PKA catalytic domain after 40 mins by IMAP assay
[5] = biological target: Glycogen synthase kinase-3 beta (Homo sapiens, UniProt P49841); experiment: Inhibition of GST-tagged full length GSK3-beta assessed as inhibition of ATP consumption after 60 mins by luminescence assay
[6] = biological target: Cyclin-dependent kinase 2/cyclin E1 (Homo sapiens, UniProt P24864+P24941); experiment: as §1; type: protein-complex assay
[7] = biological target: RAC-alpha serine/threonine-protein kinase (Homo sapiens) (UniProt P31749); experiment: Inhibition of histidine-tagged full length AKT1 after 1 hr by IMAP assay
[8] = Selectivity ratio of IC50 for GST-tagged recombinant INSR catalytic domain to IC50 for GST-tagged full length recombinant ITK

Chain of Insulin receptor (P06213 28-758 limits assumed): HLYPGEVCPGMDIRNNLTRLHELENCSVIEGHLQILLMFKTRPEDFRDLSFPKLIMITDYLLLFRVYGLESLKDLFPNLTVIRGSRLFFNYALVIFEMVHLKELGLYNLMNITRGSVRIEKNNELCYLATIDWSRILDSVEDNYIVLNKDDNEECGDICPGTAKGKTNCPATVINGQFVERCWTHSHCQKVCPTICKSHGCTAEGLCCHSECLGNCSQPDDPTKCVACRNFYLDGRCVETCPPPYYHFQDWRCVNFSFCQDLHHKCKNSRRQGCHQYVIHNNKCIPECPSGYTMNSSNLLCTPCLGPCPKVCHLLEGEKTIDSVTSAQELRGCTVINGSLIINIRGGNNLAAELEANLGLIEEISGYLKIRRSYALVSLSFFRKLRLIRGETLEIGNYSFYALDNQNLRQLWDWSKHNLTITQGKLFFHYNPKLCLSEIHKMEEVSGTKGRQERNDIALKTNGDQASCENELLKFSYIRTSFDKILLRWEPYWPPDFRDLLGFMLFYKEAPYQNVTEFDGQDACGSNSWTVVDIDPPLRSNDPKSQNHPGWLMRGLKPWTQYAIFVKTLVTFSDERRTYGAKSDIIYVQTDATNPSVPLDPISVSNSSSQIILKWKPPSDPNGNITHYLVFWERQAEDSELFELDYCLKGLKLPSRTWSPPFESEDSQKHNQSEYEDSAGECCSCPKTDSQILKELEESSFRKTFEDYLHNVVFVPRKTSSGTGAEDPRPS
Chain of Insulin receptor (P06213 763-1382 limits assumed): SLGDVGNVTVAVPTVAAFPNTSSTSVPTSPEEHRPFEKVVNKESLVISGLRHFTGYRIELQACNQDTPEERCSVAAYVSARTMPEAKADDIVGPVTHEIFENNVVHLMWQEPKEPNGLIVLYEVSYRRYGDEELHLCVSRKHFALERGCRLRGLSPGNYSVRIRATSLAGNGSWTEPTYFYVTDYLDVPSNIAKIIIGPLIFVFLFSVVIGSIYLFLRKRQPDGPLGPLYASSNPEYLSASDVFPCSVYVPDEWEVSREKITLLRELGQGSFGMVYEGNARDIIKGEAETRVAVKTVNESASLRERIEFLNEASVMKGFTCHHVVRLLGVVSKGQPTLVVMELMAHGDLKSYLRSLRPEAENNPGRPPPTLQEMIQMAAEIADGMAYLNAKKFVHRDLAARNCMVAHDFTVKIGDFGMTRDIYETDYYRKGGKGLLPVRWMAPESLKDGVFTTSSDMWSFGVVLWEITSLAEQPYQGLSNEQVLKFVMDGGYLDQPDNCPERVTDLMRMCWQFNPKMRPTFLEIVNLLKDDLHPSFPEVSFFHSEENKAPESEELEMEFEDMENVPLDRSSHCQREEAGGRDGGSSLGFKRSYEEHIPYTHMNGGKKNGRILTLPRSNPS
Chain of Glycogen synthase kinase-3 beta (P49841 whole entry): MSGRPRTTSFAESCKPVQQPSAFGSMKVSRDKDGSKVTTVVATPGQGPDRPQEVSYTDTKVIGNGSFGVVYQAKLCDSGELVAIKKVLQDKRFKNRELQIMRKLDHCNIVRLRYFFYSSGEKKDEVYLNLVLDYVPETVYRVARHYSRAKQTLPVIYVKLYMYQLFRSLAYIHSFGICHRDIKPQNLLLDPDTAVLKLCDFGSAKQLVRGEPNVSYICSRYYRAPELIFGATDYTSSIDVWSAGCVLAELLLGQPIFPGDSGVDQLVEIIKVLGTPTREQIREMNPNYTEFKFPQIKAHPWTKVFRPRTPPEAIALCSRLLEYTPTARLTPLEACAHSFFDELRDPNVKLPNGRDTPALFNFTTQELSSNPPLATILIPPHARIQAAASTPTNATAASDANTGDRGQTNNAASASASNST
Chain of RAC-alpha serine/threonine-protein kinase (Homo sapiens) (P31749 whole entry, the tested form may be a part): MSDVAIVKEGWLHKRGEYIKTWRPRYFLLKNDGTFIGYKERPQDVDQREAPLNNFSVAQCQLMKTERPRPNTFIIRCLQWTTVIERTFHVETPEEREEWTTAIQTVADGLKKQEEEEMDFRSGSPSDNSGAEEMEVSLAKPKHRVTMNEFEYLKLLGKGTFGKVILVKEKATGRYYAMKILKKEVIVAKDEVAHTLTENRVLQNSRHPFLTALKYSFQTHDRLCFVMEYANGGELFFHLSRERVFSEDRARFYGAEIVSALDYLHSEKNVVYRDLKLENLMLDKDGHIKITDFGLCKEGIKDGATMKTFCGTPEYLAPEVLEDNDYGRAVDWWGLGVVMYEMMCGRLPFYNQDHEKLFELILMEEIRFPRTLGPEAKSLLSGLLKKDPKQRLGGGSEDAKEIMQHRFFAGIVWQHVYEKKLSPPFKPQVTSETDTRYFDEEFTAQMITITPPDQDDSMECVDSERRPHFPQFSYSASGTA

SMILES: Cn1cncc1CNC(=O)c1ccc2cc(-c3cc(Cc4ccccc4)[nH]n3)[nH]c2c1
- IC50 [1]: 630 nM
- IC50 [2]: 5010 nM
- IC50 [3]: 31600 nM
- IC50 [4]: Not Active
- IC50 [5]: Not Active

SMILES: Cn1cncc1CNC(=O)c1ccc2cc(-c3cc(-c4ccccc4)[nH]n3)[nH]c2c1
- IC50 [1]: 1260 nM

SMILES: Cn1nccc1CNC(=O)c1ccc2cc(-c3n[nH]cc3-c3ccccc3)[nH]c2c1
- IC50 [1]: 630 nM
- IC50 [2]: 9330 nM
- IC50 [3]: 160 nM
- IC50 ([4]; read-out: IC50): 7080 nM
- IC50 ([5]; read-out: IC50): 1260 nM

SMILES: Cn1nccc1CNC(=O)c1ccc2cc(-c3cc(Cc4ccccc4)[nH]n3)[nH]c2c1
- IC50 [1]: 1000 nM
- IC50 [2]: 20000 nM
- IC50 [3]: 12600 nM
- IC50 [4]: Not Active
- IC50 [5]: Not Active

SMILES: Cn1nccc1CNC(=O)c1ccc2c(CO)c(-c3cc(Cc4ccccc4)[nH]n3)[nH]c2c1
- IC50 [1]: 1580 nM

SMILES: Cn1nccc1CNC(=O)c1ccc2cc(-c3cc(-c4ccccc4)[nH]n3)[nH]c2c1
- IC50 [1]: 3160 nM

SMILES: COCCNC(=O)c1ccc2cc(-c3cc(-c4ccccc4)[nH]n3)[nH]c2c1
- IC50 [1]: 3160 nM

SMILES: COc1ccc(CNCc2c(-c3n[nH]cc3-c3ccccc3)[nH]c3cc(C(=O)N(C)CC(C)C)ccc23)cc1
- IC50 [1]: 20400 nM

SMILES: Cc1oncc1CNC(=O)c1ccc2cc(-c3cc(-c4ccccc4)[nH]n3)[nH]c2c1
- IC50 [1]: 1820 nM

SMILES: CNC(=O)c1ccc2c(CNCc3ccncc3)c(-c3cc(Cc4ccccc4)[nH]n3)[nH]c2c1
- IC50 [1]: 5000 nM

SMILES: CC(C)CN(C)C(=O)c1ccc2cc(-c3cc(Cc4ccccc4)[nH]n3)[nH]c2c1
- IC50 [1]: 560 nM
- IC50 [2]: > 100000 nM
- IC50 [6]: Not Active
- inhibition [7]: inactive
- IC50 [4]: Not Active
- IC50 [5]: Not Active

SMILES: CC(C)CN(C)C(=O)c1ccc2c(CO)c(-c3n[nH]cc3-c3ccccc3)[nH]c2c1
- IC50 [1]: > 100000 nM

SMILES: Cn1cncc1CNC(=O)c1ccc2cc(-c3n[nH]cc3-c3ccccc3)[nH]c2c1
- IC50 [1]: 790 nM
- IC50 [2]: 7080 nM
- IC50 [3]: 630 nM
- IC50 ([4]; read-out: IC50): 10000 nM
- IC50 ([5]; read-out: IC50): 540 nM

SMILES: CC(C)CN(C)C(=O)c1ccc2cc(-c3n[nH]cc3-c3ccccc3)[nH]c2c1
- IC50 [1]: 330 nM
- IC50 [2]: > 10000 nM
- IC50 [3]: 3160 nM
- IC50 [4]: Not Active
- IC50 ([5]; read-out: IC50): 6760 nM
- Ratio IC50 [8]: > 30

SMILES: Cn1cncc1CNC(=O)c1ccc2c(CN3CCOCC3)c(-c3cc(Cc4ccccc4)[nH]n3)[nH]c2c1
- IC50 [1]: 630 nM

SMILES: Cc1oncc1CNC(=O)c1ccc2cc(-c3n[nH]cc3-c3ccccc3)[nH]c2c1
- IC50 [1]: 630 nM
- IC50 [2]: 5750 nM
- IC50 [3]: 400 nM
- IC50 ([4]; read-out: IC50): 5010 nM
- IC50 ([5]; read-out: IC50): 2290 nM

SMILES: COCCNC(=O)c1ccc2cc(-c3n[nH]cc3-c3ccccc3)[nH]c2c1
- IC50 [1]: 2510 nM

SMILES: CC(C)CN(C)C(=O)c1ccc2c(CNCc3ccc(F)cc3)c(-c3cc(Cc4ccccc4)[nH]n3)[nH]c2c1
- IC50 [1]: 500 nM

SMILES: CC(C)CN(C)C(=O)c1ccc2cc(-c3cc(-c4ccccc4)[nH]n3)[nH]c2c1
- IC50 [1]: 850 nM

SMILES: CC(C)CN(C)C(=O)c1ccc2c(CNCCCO)c(-c3n[nH]cc3-c3ccccc3)[nH]c2c1
- IC50 [1]: > 100000 nM
